Experimental data reported in US8003783B2, “17B-hydroxysteroid dehydrogenase inhibitors” (Sterix Limited, priority 2004, dated 2011).
Like-named read-outs stand apart in the source and are kept apart here.

What was measured:
rat liver DHA-STS = biological target: T1, rat liver DHA-STS (Rattus norvegicus, UniProt P15589); settings: administered orally or subcutaneously; cited from earlier work
T1 construct: from tissue; host or cells: rat liver
T1 sequence (P15589 20-577): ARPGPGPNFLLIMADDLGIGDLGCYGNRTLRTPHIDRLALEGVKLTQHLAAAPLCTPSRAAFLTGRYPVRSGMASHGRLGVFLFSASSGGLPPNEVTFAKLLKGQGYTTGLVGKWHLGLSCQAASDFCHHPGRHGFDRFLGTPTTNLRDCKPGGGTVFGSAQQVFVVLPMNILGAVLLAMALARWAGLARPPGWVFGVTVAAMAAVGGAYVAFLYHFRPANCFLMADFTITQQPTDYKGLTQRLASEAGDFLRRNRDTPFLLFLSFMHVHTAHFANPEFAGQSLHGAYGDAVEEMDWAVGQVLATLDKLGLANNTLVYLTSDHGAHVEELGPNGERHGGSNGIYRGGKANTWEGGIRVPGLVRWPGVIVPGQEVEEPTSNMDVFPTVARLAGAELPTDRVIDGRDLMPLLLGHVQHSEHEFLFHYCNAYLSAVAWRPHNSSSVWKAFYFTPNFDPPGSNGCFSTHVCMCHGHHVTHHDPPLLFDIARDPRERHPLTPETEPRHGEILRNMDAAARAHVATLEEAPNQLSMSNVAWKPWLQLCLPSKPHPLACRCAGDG

rat liver E1-STS = biological target: T2, rat liver E1-STS (Rattus norvegicus, UniProt P15589); settings: administered orally or subcutaneously; cited from earlier work
T2 construct: samples of liver tissue were obtained and oestrone sulphatase activity assayed; from tissue; host or cells: rat liver
T2 sequence (P15589 20-577): T1 sequence (P15589 20-577)

rats = settings: cited from earlier work
E1-STS = biological target: T3, E1-STS (Homo sapiens, UniProt P08842); set-up: dose or concentration left out as unconfirmed; settings: intact MCF-7 cells; cited from earlier work
T3 construct: endogenous in cells; host or cells: MCF-7 human breast cancer cells
T3 sequence (P08842 22-583): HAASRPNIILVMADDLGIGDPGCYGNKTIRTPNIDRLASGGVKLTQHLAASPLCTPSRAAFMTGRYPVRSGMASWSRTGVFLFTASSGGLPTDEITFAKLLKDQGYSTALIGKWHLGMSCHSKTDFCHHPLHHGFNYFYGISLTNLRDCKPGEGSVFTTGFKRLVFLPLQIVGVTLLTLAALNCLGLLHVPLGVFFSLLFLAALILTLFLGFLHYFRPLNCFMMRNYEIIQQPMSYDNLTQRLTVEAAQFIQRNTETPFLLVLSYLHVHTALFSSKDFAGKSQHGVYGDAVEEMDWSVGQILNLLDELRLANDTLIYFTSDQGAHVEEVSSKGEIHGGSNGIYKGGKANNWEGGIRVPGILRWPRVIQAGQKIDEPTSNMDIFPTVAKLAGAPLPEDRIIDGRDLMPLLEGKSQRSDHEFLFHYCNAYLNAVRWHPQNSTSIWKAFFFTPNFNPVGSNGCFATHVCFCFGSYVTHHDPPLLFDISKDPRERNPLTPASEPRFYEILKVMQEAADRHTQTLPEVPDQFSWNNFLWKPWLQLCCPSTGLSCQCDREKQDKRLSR

17β-HSD2 = biological target: T4, 17β-HSD2 (Homo sapiens, UniProt P37059); experiment: 17β-HSD Type II activity in MDA-MB-231 cells (E2→E1); type: cell-based
T4 construct: was measured in intact cell monolayers of T47D and MDA-MB-231 breast cancer cells respectively; endogenous in cells; host or cells: MDA-MB-231 human breast cancer cells
T4 sequence (P37059 1-387): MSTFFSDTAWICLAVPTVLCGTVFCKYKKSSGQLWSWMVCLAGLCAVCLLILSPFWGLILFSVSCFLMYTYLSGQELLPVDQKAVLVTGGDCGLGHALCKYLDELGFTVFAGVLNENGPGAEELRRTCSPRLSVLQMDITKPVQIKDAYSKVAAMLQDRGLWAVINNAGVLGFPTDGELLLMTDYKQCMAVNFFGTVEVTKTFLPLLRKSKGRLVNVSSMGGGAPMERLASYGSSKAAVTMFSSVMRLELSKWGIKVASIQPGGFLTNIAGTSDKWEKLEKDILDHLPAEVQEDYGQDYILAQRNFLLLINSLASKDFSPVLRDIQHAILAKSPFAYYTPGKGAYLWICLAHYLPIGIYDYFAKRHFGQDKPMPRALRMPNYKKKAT

17β-HSD1 = biological target: T5, 17β-HSD1 (Homo sapiens, UniProt P14061); experiment: 17β-HSD Type I activity in T-47D cells (E1→E2); type: cell-based; settings: for inhibition at 10 µM: T47D
T5 construct: was measured in intact cell monolayers of T47D and MDA-MB-231 breast cancer cells respectively; endogenous in cells; host or cells: T-47D human breast cancer cells
T5 sequence (P14061 1-328): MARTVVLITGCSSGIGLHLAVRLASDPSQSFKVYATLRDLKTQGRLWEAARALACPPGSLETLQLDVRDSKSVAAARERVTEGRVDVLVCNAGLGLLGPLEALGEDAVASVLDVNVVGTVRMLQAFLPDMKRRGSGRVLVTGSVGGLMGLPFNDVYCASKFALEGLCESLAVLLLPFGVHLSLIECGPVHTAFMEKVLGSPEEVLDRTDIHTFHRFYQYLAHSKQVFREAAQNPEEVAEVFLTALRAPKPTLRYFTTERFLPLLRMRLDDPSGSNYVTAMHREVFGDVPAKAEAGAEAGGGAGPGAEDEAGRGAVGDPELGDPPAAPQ

[1] = 10 μM, MDA-MB-231 cells, E2→E1, read-out: % inhibition of 17β-HSD2 @ 10 μM
[2] = 10 μM, T-47D cells, E1→E2, read-out: % inhibition of 17β-HSD1 @ 10 μM
[3] = T-47D cells, E1→E2, read-out: IC50 (17β-HSD1)

For `C[C@]12CC[C@@H]3c4ccc(OS(N)(=O)=O)cc4CC[C@H]3[C@@H]1CCC2=O` [EMATE, oestrone-3-sulphamate], the “inhibition of rat liver DHA-STS activity” value (rat liver DHA-STS) is listed as 99%, the “inhibition of rat liver E1-STS activity” value (rat liver E1-STS) is listed as 99% and the “oral uterotrophic activity relative to oestradiol” value (rats) is listed as 100 times. For the same molecule, the “inhibition of E1-STS activity” value (E1-STS) was “more than 99%”.
In the case of `C[C@]12CCC3c4ccc(O)cc4CCC3C1C/C(=C(/O)C(F)(F)F)C2=O` (some centres unmarked) [compound 946], the inhibition at 10 µM (17β-HSD2; MDA-MB-231, read-out: % inhibition of 17β-HSD2 @ 10 μM) is reported as -1.5%, the “% inhibition of 17β-HSD1 @ 10 μM” value (17β-HSD1; 10 μM, T-47D cells, E1→E2) is reported as 87% and the inhibition at 10 µM (17β-HSD1; read-out: % inhibition of 17β-HSD1 @ 10 μM, 10 μM, T-47D cells, E1→E2) is reported as 69%.
With `C[C@]12CCC3c4ccc(O)cc4CCC3C1CC1C(C(F)(F)F)=NNC12O` (some centres unmarked) [compound 947] the inhibition at 10 µM (17β-HSD2; [1]) was 2% and the inhibition at 10 µM (17β-HSD1; [2]) was 83%.
For `CC(C)(C)/C=C1\CC2C3CCc4cc(O)ccc4C3CC[C@]2(C)[C@H]1O` (some centres unmarked) [compound 948], the inhibition at 10 µM (17β-HSD2; [1]) was 27% and the inhibition at 10 µM (17β-HSD1; [2]) was 84%.
In the case of `C[C@]12CCC3c4ccc(O)cc4CCC3C1Cc1c2n[nH]c1C(F)(F)F` (some centres unmarked) [compound 949], the inhibition at 10 µM (17β-HSD2; [1]) is reported as 36% and the inhibition at 10 µM (17β-HSD1; [2]) is reported as 75%.
`CCc1cc2c(cc1OS(N)(=O)=O)CCC1C2CC[C@]2(C)C(=O)C(CC(=O)NCc3cccnc3)CC12` (some centres unmarked) [compound 1039] gave an inhibition at 10 µM (17β-HSD2; [1]) of -4% and an IC50 (17β-HSD1; [3]) of 5100 nM.
For `CCc1cc2c(cc1O)CCC1C2CC[C@]2(C)C(=O)C(CC(=O)NCc3cccnc3)CC12` (some centres unmarked) [compound 1040], the inhibition at 10 µM (17β-HSD2; [1]) was -5% and the IC50 (17β-HSD1) was 27 nM.
With `COc1cc2c(cc1O)CCC1C2CC[C@]2(C)C(=O)C(CC(=O)NCc3cccnc3)CC12` (some centres unmarked) [compound 1191] the inhibition at 10 µM (17β-HSD2; [1]) was 1.2%, the inhibition at 10 µM (17β-HSD1; [2]) was 96% and the IC50 (17β-HSD1; [3]) was 290 nM.
